# Assay results as given in PubChem BioAssay (NCI).
#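 A five-concentration, 48-hour dose response in 96-well plates underlies each endpoint, interpolated linearly between surrounding concentrations. The concentration for 50% growth inhibition is given as GI50. TGI denotes the concentration required for complete inhibition of growth.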 Where a SMILES comes first, the peptide text is derived from it.
# Tests used:
# Test in all cases: NCI tumour cell line growth inhibition, 48 h
# [1] = tested on: DLD-1 colon
# [2] = tested on: DMS 114 small cell lung
# [3] = tested on: P388 leukemia
# [4] = tested on: HOP-18 NSCLC
# [5] = tested on: SNB-78 CNS
# [6] = tested on: KM20L2 colon
# [7] = tested on: P388/ADR leukemia
# [8] = tested on: XF 498 CNS
# [9] = tested on: SN12K1 renal
# [10] = tested on: LXFL 529 NSCLC
# [11] = tested on: RXF-631 renal
SMILES,TGI [1],TGI [2],TGI [3],TGI [4],TGI [5],TGI [6],TGI [7],TGI [8],TGI [9],GI50 [5],TGI [10],TGI [11]
C=C1C(=O)O[C@@H]2[C@H]3O[C@]3(C)CCC=C(C)CC[C@@H]12,28.4 µM,165 µM,175 µM,28.3 µM,62 µM,62.2 µM,27.9 µM,32.4 µM,37.9 µM,–,–,–
CC1=C2C(O)C(C(C)C(=O)NCC(C)C)CCC2(C)C=CC1=O (stereo unspecified),> 100 µM,> 100 µM,> 100 µM,> 100 µM,> 100 µM,> 100 µM,> 100 µM,> 100 µM,> 100 µM,–,–,–
CC1NC(=O)CNC(=O)CNC(=O)C(Cc2ccc(O)cc2)NC(=O)C(C(C)C)NC(=O)C(C)NC1=O (stereo unspecified) (cyclo(GGAAVY); configuration not given here),> 100 µM,> 100 µM,> 100 µM,> 100 µM,> 100 µM,–,> 100 µM,> 100 µM,> 100 µM,> 100 µM,–,–
NC(=S)/N=C/c1c(O)c2ccccc2oc1=O,> 100 µM,> 100 µM,–,> 100 µM,> 100 µM,> 100 µM,–,> 100 µM,–,–,> 100 µM,–
CCCCCC(CN1CCOCC1)C(=O)/C=C/c1ccccc1 (stereo unspecified),–,5.17 µM,–,–,–,10.9 µM,–,3.29 µM,–,–,–,–
O=C1C=CC(=O)c2c1ccc1c3ccccc3n(-c3ccccn3)c21,30.6 µM,40.2 µM,–,29.1 µM,> 100 µM,–,–,29.3 µM,–,–,28.5 µM,–
CN(C)c1nc(N(C)C)nc(N(C)C)n1,> 150 µM,> 150 µM,> 150 µM,87.3 µM,> 150 µM,> 150 µM,> 136 µM,> 116 µM,> 150 µM,–,> 150 µM,–
CN(C)c1ccc(-c2cc(=O)c3ccccc3[nH]2)cc1,> 100 µM,> 100 µM,–,–,> 100 µM,> 100 µM,–,–,–,–,> 100 µM,–
NC(N)=NCCCC(N=c1c2ccccc2n(O)c2ccccc12)C(=O)O (stereo unspecified),> 100 µM,> 100 µM,–,> 100 µM,–,> 100 µM,–,–,–,–,> 100 µM,> 100 µM
C=CC1(C)CCC(C(C)C(=O)C(C=C(C)C)OC(C)=O)C12C(=O)Oc1ccccc1C2=O (stereo unspecified),> 100 µM,> 100 µM,–,> 100 µM,> 100 µM,> 100 µM,–,> 100 µM,–,–,> 100 µM,–
